We go through two compounds from patent US9023789B2, “Amylin analogs and pharmaceutical compositions thereof” (Novo Nordisk A/S, priority 2012, dated 2015).

One data set deals with Sprague Dawley (SD) rats. The experiment in a line: ASSAY (I) efficacy testing on appetite (food intake) using an ad libitum fed rat model. The class given is in vivo. The following applies: rat, 30 nmol/kg. From the text:
Sprague Dawley (SD) rats from Taconic Europe, Denmark are used for the experiments. The rats have a body weight 200-250 g at the start of experiment. The rats arrive at least 10-14 days before start of experiment to allow acclimatization to experimental settings. During this period the animals are handled at least 2 times. After arrival rats are housed individually for one week in a reversed light/dark phase (meaning that lights are off during daytime and on during nighttime) for two weeks. Since rats are normally active and eat their major part of their daily food intake during the dark period, rats are dosed in the morning right before lights are turned off. This set-up results in the lowest data variation and highst test sensitivity. The experiment is conducted in the rats' home cages and rats have free access to food and water throughout the acclimatization period and the experiment period. Each dose of derivative is tested in a group of 5-8 rats. A vehicle group of 6-8 rats is included in each set of testing. Rats are dosed once according to body weight with a 0.01-3 mg/kg solution administered intraperitoneally (ip), orally (po) or subcutaneously (sc). The time of dosing is recorded for each group. After dosing, the rats are returned to their home cages, where they then have access to food and water. The food consumption is recorded individually continuously by online registration or manually every hour for 7 hours, and then after 24 h and sometimes 48 h. At the end of the experimental session, the animals are euthanized.
The individual data are recorded in Microsoft excel sheets. Outliers are excluded after applying the Grubbs statistical evaluation test for outliers, and the result is presented graphically using the GraphPad Prism program.

Data set [1] has as its target T1, rat amylin receptor (rat calcitonin receptor + rat RAMP 3) (Rattus norvegicus, UniProt P32214+Q9JJ73).
T1 construct: expressed in transfected cells; host or cells: BHK tk'ts 13 (transient, FuGENE 6), membranes
T1 sequence (P32214 25-479 isoform P32214-2 limits assumed): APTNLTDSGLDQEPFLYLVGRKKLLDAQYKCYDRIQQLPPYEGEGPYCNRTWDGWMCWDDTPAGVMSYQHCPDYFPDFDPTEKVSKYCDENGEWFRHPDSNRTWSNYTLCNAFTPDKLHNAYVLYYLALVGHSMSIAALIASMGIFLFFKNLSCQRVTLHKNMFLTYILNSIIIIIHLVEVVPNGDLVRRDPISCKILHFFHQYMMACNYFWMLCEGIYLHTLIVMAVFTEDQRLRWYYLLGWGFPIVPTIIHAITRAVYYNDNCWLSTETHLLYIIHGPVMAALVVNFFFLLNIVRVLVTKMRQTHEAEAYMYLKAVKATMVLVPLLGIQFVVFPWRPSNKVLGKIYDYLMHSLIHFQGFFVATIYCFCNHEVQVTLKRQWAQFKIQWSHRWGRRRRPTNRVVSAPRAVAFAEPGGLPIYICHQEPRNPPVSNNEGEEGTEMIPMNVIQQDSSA
T1 sequence (Q9JJ73 23-147 partner): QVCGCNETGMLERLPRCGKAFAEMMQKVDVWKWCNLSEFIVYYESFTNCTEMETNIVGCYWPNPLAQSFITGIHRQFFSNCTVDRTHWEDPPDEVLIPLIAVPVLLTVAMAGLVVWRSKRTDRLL
Briefly: ASSAY (VI) binding to the rat amylin receptor. The protocol: Assay (VI)—Determination of the Binding to the Rat Amylin Receptor […] The BHK tk′ts 13 cells were transiently transfected with rat calcitonin receptor using FuGENE® 6 (Roche), according to the manufacturer's recommendations. […] Approximately 48 hours after transfection, the cells were harvested and membranes were prepared.

Data set [2] concerns the target T2, human amylin 3(a) receptor (human calcitonin receptor + RAMP-3) in BHK570 cells (Homo sapiens, UniProt O60896+P30988).
T2 construct: expressed in transfected cells
The experiment in a line: ASSAY (II)a functional assay, human amylin receptor (CRE luciferase). The class given is cell-based. The source says:
1. Luciferase Assay Outline
Activation of calcitonin and amylin (coexpression of calcitonin receptor and receptor activity modifying proteins (RAMP)) receptors lead to increased intracellular concentrations of cAMP. Consequently, transcription is activated by promoters containing multiple copies of the cAMP response element (CRE). It is thus possible to measure amylin activity by the use of a CRE luciferase reporter gene introduced into BHK cells also expressing calcitonin or amylin receptors.
2. Construction of Calcitonin (a)- and Amylin 3(a)-Receptor/CRE-Luc Cell Line.
The cell line was further transfected with RAMP-3, using standard methods. This turns the calcitonin receptor into an amylin 3(a) receptor. Methotrexate, Neomycin, and Hygromycin are selection markers for luciferase, the calcitonin receptor, and RAMP-3, respectively.
To perform activity assays, BHK calcitonin (a) receptor- or amylin 3(a)-receptor/CRE-luc cells were seeded in white 96 well culture plates at a density of about 20.000 cells/well. […] After incubation overnight at 37° C. and 5% CO2, the growth medium was replaced by 50 μl/well assay medium (DMEM (without phenol red), Glutamax™, 10% FBS, and 10 mM Hepes, pH 7.4). Further, 50 μl/well of standard or sample in assay buffer were added. After 3 hours incubation at 37° C. and 5% CO2, the assay medium with standard or sample were removed and replaced by 100 μl/well PBS. Further, 100 μl/well LucLite™ was added. The plates were sealed and incubated at room temperature for 30 minutes. Finally, luminescence was measured on a TopCounter (Packard) in SPC (single photon counting) mode.

Data set [3] addresses T3, human amylin receptor (membranes from Amylin 3(a)/CRE-luc cells) (Homo sapiens, UniProt O60896+P30988).
T3 construct: expressed in transfected cells
T3 sequence (P30988 25-474): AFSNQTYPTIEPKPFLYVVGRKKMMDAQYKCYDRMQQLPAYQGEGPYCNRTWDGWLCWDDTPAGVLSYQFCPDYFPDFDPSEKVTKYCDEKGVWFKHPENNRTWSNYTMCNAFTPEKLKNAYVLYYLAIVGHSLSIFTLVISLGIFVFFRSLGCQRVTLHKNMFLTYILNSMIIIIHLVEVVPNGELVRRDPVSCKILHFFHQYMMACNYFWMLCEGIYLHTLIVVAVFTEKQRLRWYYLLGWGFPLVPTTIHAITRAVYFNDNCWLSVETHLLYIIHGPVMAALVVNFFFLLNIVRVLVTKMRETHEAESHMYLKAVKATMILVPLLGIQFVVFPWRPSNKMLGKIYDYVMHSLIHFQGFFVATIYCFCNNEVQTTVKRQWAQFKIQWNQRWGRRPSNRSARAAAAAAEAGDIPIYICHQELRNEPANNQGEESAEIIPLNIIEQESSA
T3 sequence (O60896 24-148 partner): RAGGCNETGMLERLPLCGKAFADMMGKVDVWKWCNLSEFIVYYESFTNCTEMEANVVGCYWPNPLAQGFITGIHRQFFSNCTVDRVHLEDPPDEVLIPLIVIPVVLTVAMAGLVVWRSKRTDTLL
The experiment in a line: ASSAY (V) binding to the human amylin receptor (SPA, 125I-rat amylin).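 Further: competition binding of cell membranes (35 ng/µL) mixed with SPA beads in 384-well plates at 40 µL total volume, read by scintillation counting.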

The target in the next data set is T4, rat calcitonin receptor (Rattus norvegicus, UniProt P32214).
T4 construct: expressed in transfected cells; host or cells: BHK tk'ts 13 (transient, FuGENE 6), membranes
T4 sequence (P32214 25-479 isoform P32214-2 limits assumed): T1 sequence (P32214 25-479 isoform P32214-2 limits assumed)
Briefly: ASSAY (VIII) binding to the rat calcitonin receptor. To be noted: Table 7, read-out: rCTR bind IC50. The protocol:
Assay (VIII)—Determination of Binding to the Rat Calcitonin Receptor
The BHK tk′ts 13 cells were transiently transfected with rat calcitonin receptor using FuGENE® 6 (Roche), according to the manufacturer's recommendations. Cells were grown in DMEM with 10% FBS and 1% Pen/Strep. Approximately 48 hours after transfection, the cells were harvested and membranes were prepared.

Data set [4] can be described thus: ASSAY (IV) determination of solubility. The class given is physicochemical. As for the experimental part: Assay (IV)—Determination of Solubility
The polypeptide was dissolved in water at −500 nmol/ml and mixed 1:1 with a series of buffers (100 mM glycylglycine pH 3.0, 100 mM glycylglycine pH 4.0, 100 mM glycylglycine pH 5.0, 100 mM bistrispropane pH 6.0, 100 mM bistrispropane pH 6.5, 100 mM bistrispropane pH 7.0, 100 mM bistrispropane pH 7.5, 100 mM bistrispropane pH 8.0). After 18 hours at room temperature the samples were centrifuged and the polypeptide concentration determined by UPLC.

Where two headings read alike, the source gives them in different places.

On to `CC[C@H](C)[C@H](NC(=O)[C@H](C)NC(=O)CNC(=O)[C@H](Cc1ccccc1)NC(=O)[C@H](CC(N)=O)NC(=O)[C@@H]1CCCN1C(=O)[C@H](CO)NC(=O)[C@H](CO)NC(=O)[C@H](Cc1c[nH]cn1)NC(=O)[C@H](CCCNC(=N)N)NC(=O)[C@H](CC(C)C)NC(=O)[C@H](Cc1ccccc1)NC(=O)[C@@H](CC(=O)O)NC(=O)[C@H](C)NC(=O)[C@H](CC(C)C)NC(=O)[C@H](CCCNC(=N)N)NC(=O)[C@H](CCC(N)=O)NC(=O)[C@@H](NC(=O)[C@H](C)NC(=O)[C@@H]1CSSC[C@H](NC(=O)[C@@H](N)CCCCNC(=O)CC[C@H](NC(=O)CC[C@H](NC(=O)CCCCCCCCCCCCCCCCCCC(=O)O)C(=O)O)C(=O)O)C(=O)N[C@@H](CC(N)=O)C(=O)N[C@@H]([C@@H](C)O)C(=O)N[C@@H](C)C(=O)N[C@@H]([C@@H](C)O)C(=O)N1)[C@@H](C)O)C(=O)N1CCC[C@H]1C(=O)N[C@@H](CO)C(=O)N[C@@H](CO)C(=O)N[C@H](C(=O)N[C@@H](CC(N)=O)C(=O)N[C@H](C(=O)NCC(=O)N[C@@H](CO)C(=O)N[C@@H](CCCNC(=N)N)C(=O)N[C@H](C(=O)N[C@@H](Cc1ccc(O)cc1)C(N)=O)[C@@H](C)O)C(C)C)[C@@H](C)O` [Example 131], for which, in the data set on Sprague Dawley (SD) rats (0-24 h), the “Food intake reduction 0-24 h 30 nmol/kg (%)” value is reported as 17%. The “Food intake reduction 24-48 h 30 nmol/kg (%)” value with Sprague Dawley (SD) rats (24-48 h) worked out at 14%. Besides, the half-maximal inhibitory concentration (IC50) in data set [1] (Table 7, binding to rat amylin receptor, read-out: rAmylin-R bind IC50) amounted to 0.00169 µM; at rat calcitonin receptor, 0.536 µM. Besides, the “Ratio rCT/rAmylin binding” value turned out to be 316.7 in data set [1] (Table 7, rat binding selectivity, rCTR IC50 / rAmylin-R IC50); 316.7 in data set [1] (Table 7a (preferred compounds), rat binding selectivity, rCTR IC50 / rAmylin-R IC50); 316.7 in data set [1] (ratio of rCTR bind IC50 to rAmylin-R bind IC50). Further, the “Ratio hCT/hAmylin funct.” value in data set [2] (hCTR funct. EC50 divided by hAmylin-R funct. EC50), in data set [2] (hCTR funct. EC50 over hAmylin-R funct. EC50) and in data set [2] (human functional selectivity: hCTR funct. EC50 / hAmylin-R funct. EC50) was 261.1 in each case. For the same compound, the “Ratio hCT/hAmylin binding” value in data set [3] (Table 5, selectivity, hCTR bind IC50 / hAmylin-R bind IC50) amounted to 306.6; in data set [3] (Table 5a, selectivity, hCTR bind IC50 / hAmylin-R bind IC50), 306.6; in data set [3] (Table 5b, selectivity, hCTR bind IC50 / hAmylin-R bind IC50), 306.6; in data set [3] (Table 5c, selectivity, hCTR bind IC50 / hAmylin-R bind IC50), 306.6; in data set [3] (Table 7, human binding selectivity, included for comparison), 306.6; in data set [3] (Table 7a (preferred compounds), human binding selectivity, included for comparison) it was 306.6. Besides, the “Ratio hCT/hAmylin binding” value in data set [3] (ratio of human calcitonin receptor binding IC50 to human amylin receptor binding IC50) is given as 306.6.
For `CC[C@H](C)[C@H](NC(=O)[C@H](C)NC(=O)CNC(=O)[C@H](Cc1ccccc1)NC(=O)[C@H](CC(N)=O)NC(=O)[C@@H]1CCCN1C(=O)[C@H](CO)NC(=O)[C@H](CO)NC(=O)[C@H](Cc1c[nH]cn1)NC(=O)[C@H](CCCNC(=N)N)NC(=O)[C@H](CC(C)C)NC(=O)[C@H](Cc1ccccc1)NC(=O)[C@H](CC(=O)O)NC(=O)[C@H](C)NC(=O)[C@H](CC(C)C)NC(=O)[C@H](CCCNC(=N)N)NC(=O)[C@H](CCC(N)=O)NC(=O)[C@@H](NC(=O)[C@H](C)NC(=O)[C@@H]1CSSC[C@H](NC(=O)[C@@H](N)CCCCN)C(=O)N[C@@H](CC(N)=O)C(=O)N[C@@H]([C@@H](C)O)C(=O)N[C@@H](C)C(=O)N[C@@H]([C@@H](C)O)C(=O)N1)[C@@H](C)O)C(=O)N1CCC[C@H]1C(=O)N[C@@H](CO)C(=O)N[C@@H](CO)C(=O)N[C@H](C(=O)N[C@@H](CC(N)=O)C(=O)N[C@H](C(=O)NCC(=O)N[C@@H](CO)C(=O)N[C@@H](CCCNC(=N)N)C(=O)N[C@H](C(=O)N[C@@H](Cc1ccc(O)cc1)C(N)=O)[C@@H](C)O)C(C)C)[C@@H](C)O` [Example 132], the IC50 on rat calcitonin receptor came to 0.0309 µM. Further, the solubility at 18 h in data set [4] (bistrispropane buffer, pH 6.5, read-out: Solubility pH 6.5 Concentration) was not below 200 µM; in data set [4] (bistrispropane buffer, pH 7.5, read-out: Solubility pH 7.5 Concentration) it was not below 200 µM; in data set [4] (bistrispropane buffer, pH 6.0, read-out: Solubility pH 6.0 Concentration), not below 200 µM; in data set [4] (bistrispropane buffer, pH 7.0, read-out: Solubility pH 7.0 Concentration) it was not below 200 µM; in data set [4] (bistrispropane buffer, pH 8.0, read-out: Solubility pH 8.0 Concentration), not below 200 µM; in data set [4] (glycylglycine buffer, pH 3.0, read-out: Solubility pH 3.0 Concentration), not below 200 µM. Besides, the solubility at 18 h is not below 200 µM in data set [4] (glycylglycine buffer, pH 4.0, read-out: Solubility pH 4.0 Concentration) and not below 200 µM in data set [4] (glycylglycine buffer, pH 5.0, read-out: Solubility pH 5.0 Concentration).
